# Data as given in PMC12431657, “Discovery and mechanistic insights of dibenzoylmethane as a broad spectrum inhibitor of coronavirus” (PLOS Pathogens, 2025).
# Where “and” joins values, the source holds several entries; their conditions need not be identical. Equal entries are not always repeated. Structures can show the parent of a compound that is named as a salt. Where two headings read alike, the source gives them in different places.
# Experiments:
# [1] = tested on: HCoV-OC43; test: microbe, parasite or virus in culture; type: cell-based
# [2] = tested on: HCoV-229E; test: HTS luminescent cell viability assay, HCoV-229E infection; type: cell-based; conditions: 10 µM
# [3] = tested on: HCoV-OC43; test: Antiviral activity in vitro, qRT-PCR, HCoV-OC43 in RD cells; type: cell-based; design: EC50 (OC43, RD): dose-response value per replicate: concentration or dose not given beside the values
# [4] = tested on: HCoV-229E; test: Antiviral activity in vitro, viral RNA copies by qRT-PCR, HCoV-229E in Huh-7 cells; type: cell-based; design: EC50 (229E, Huh-7): dose-response value per replicate: scale not given here
# [5] = tested on: Huh-7 cells; test: Cytotoxicity assay (CCK-8), Huh-7 cells
# [6] = tested on: RD cells; type: cell-based
# [7] = tested on: HCoV-OC43; test: Time-of-addition assay; type: cell-based
# Protocol: To obtain further insight into the stage at which DBM inhibits the replication of HCoV-OC43 and other HCoVs, RD cells were incubated with compounds, including DBM, remdesivir (RDV), and chloroquine (CQ), at different stages of viral infection. Viral RNA from the supernatant was extracted and quantitatively analysed via qRT-PCR. […] For the viral binding assay, cells were cultured in the presence or absence of DBM at different concentrations for 1 hour before being infected with HCoV-OC43 at an MOI of 50, and then were placed on ice for 2 hours for the viral particles to bind to the membrane of the host cells, followed by washing with PBS. […] In addition to binding to receptors from host cells, the spike proteins of HCoV-OC43 could also trigger membrane fusion when HCoV-OC43 spike plasmid-transfected 293T cells were seeded together with RD cells as target cells, and the addition of DBM had no effect on this process (S5C Fig). To examine whether DBM inhibits viral internalisation, cells were inoculated with HCoV-OC43 for 1 hour on ice before being treated with either DBM or DMSO, and CQ was included to prevent endosomal acidification. Subsequently, HCoV-OC43 nucleocapsid proteins were immunostained with CoraLite Plus 488 to assess viral internalisation via confocal microscopy. […] To determine whether DBM influences viral release, we quantified viral RNA both intracellularly and in the supernatant.
# To evaluate the effects of DBM on the life cycle of HCoV-229E and HCoV-OC43, fresh culture medium containing 0.6 μM DBM, 0.1 μM remdesivir (RDV), or 10 μM chloroquine (CQ) was supplemented with preseeded cells at different time points relative to infection (entry group: 0 to –2 hours; postinfection group: 2–12 hours; and full-time group: 0 to –12 hours). DMSO served as the control. At 24 hours postinfection, the number of intracellular virus RNA copies was quantified by qRT-PCR as previously described.
# [8] = tested on: HCoV-OC43; conditions: Ingenol 3,20-dibenzoate 10 mpk oral QD; day 2; one value per mouse
# [9] = tested on: HCoV-OC43; test: Antiviral activity in vitro, qRT-PCR, HCoV-OC43 in Huh-7 cells; type: cell-based; conditions: Betacoronavirus 1, OC43, Huh-7, 24 h, read-out: EC50 HCoV-OC43 (Huh-7)
# [10] = tested on: HCoV-229E; test: Antiviral activity in vitro, qRT-PCR, HCoV-229E in MRC-5 cells; type: cell-based
compound,measurement,setting,value
CC[C@@]1(O)C(=O)OCc2c1cc1n(c2=O)Cc2cc3c(N)cccc3nc2-1 [9-amino-CPT],OC43 Inhibition rate,"[1]; compound 10 μM, 24 h postinfection",-9.5%
CO[C@@H]1C[C@@H](C[C@H]2CC[C@H](C)[C@H]([C@@H](C)C(=O)O)O2)O[C@]2(O[C@](C)([C@H]3CC[C@@](C)([C@@H]4O[C@@H]([C@H]5O[C@@](O)(CO)[C@H](C)C[C@@H]5C)C[C@@H]4C)O3)C[C@H]2C)[C@@H]1C [Nigericin (sodium salt)],229E Inhibition rate,[2],0.0%
same,OC43 Inhibition rate,[1]; 10 µM,8.7%
CN[C@@H](C)[C@H]1[C@H](O)C[C@@]2(C)[C@@H]3CC[C@H]4C(C)(C)[C@@H](NC)CC[C@@]45C[C@@]35CC[C@]12C [cyclovirobuxine D],"EC50 (OC43, RD): dose-response value per replicate",[3],99.7 (3×) and 96.3 and 96.5 and 96.2 and 73.1 and 73 (2×) and 5.5 and 61.2 and 59.8 and 79.4 and 78.3 and 79.9 and 42.6 and 41.4 and 42
same,"EC50 (229E, Huh-7): dose-response value per replicate",[4],87.1 and 91.6 and 92.1 and 83.4 and 77.4 and 88.7 and 0.1 (10×) and 27 and 13.3
same,selectivity index (SI),[5],below 25
ELAC2-2 (sense GCAGAGGGAUGCCAUUAUUTT; antisense AAUAAUGGCAUCCCUCUGCTT; chemistry not given here),Relative mRNA content of the targeted gene after siRNA knockdown (Fig5D),[6],0.20 and 0.16 and 0.32
CCN(CC)CCCC(C)Nc1ccnc2cc(Cl)ccc12 (stereo not shown) [CQ],"time-of-addition, viral inhibition",[7],99.3
UBP1-1 (sense GCACCCACCCUUUCAGUAUTT; antisense AUACUGAAAGGGUGGGUGCTT; chemistry not given here),Relative mRNA content of the targeted gene after siRNA knockdown (Fig5D),[6],0.42 and 0.21 and 0.33
"CC1=C[C@]23C(=O)[C@@H](C=C(COC(=O)c4ccccc4)[C@@H](O)[C@]2(O)[C@H]1OC(=O)c1ccccc1)[C@H]1[C@@H](C[C@H]3C)C1(C)C [Ingenol 3,20-dibenzoate, ingenol 3,20-dibenzoate]",EC50,"[3]; Betacoronavirus 1, OC43, RD, 24 h, read-out: EC50 HCoV-OC43 (RD)",< 80 nM
same,EC50,"[4]; Human coronavirus 229E, Huh-7, 24 h, read-out: EC50 HCoV-229E (Huh-7)",< 80 nM
same,Body weight changes,[8],DIED
same,EC50,[9],< 80 nM
same,"HCoV-229E, MRC-5: inhibition at the concentration (Fig2B)",[10],90.2
same,EC50,"[10]; Human coronavirus 229E, MRC5, 24 h, read-out: EC50 HCoV-229E (MRC-5)",100 nM
C=C1C(=O)[C@@]23[C@@H]4OC5O[C@@]2(O)[C@@H](O)[C@@H]2C(C)(C)CC[C@@H](O)[C@]52[C@@H]3CC[C@@H]14 [ponicidin],selectivity index (SI),[5],below 25
"COC(=O)[C@H]1[C@H]2C[C@@H]3c4[nH]c5ccccc5c4CCN3C[C@H]2C[C@@H](OC(=O)c2cc(OC)c(OC)c(OC)c2)[C@@H]1OC [deserpidine, reference compound]",selectivity index (SI),[5],below 25
CYP1A1-2 (sense GGGUUUGACACAGUCACAATT; antisense UUGUGACUGUGUCAAACCCTT; chemistry not given here),Relative mRNA content of the targeted gene after siRNA knockdown (Fig5D),[6],0.00
ALG11-2 (sense GGUGCCUGUGCAAGUUGUUTT; antisense AACAACUUGCACAGGCACCTT; chemistry not given here),Relative mRNA content of the targeted gene after siRNA knockdown (Fig5D),[6],0.16 and 0.22 and 0.13
C=C(C)[C@H](CC=C(C)C)Cc1c(O)cc(O)c2c1O[C@H](c1ccc(O)cc1O)CC2=O [sophoraflavanone G],selectivity index (SI),[5],below 25
IDH3G-2 (sense GCACGUGAGUUCCAAUGCUTT; antisense AGCAUUGGAACUCACGUGCTT; chemistry not given here),Relative mRNA content of the targeted gene after siRNA knockdown (Fig5D),[6],0.00
COc1ccc(-c2oc3c(CC=C(C)C)c(O)cc(O)c3c(=O)c2O[C@@H]2O[C@@H](C)[C@H](O)[C@@H](O)[C@H]2O)cc1 [baohuoside I],selectivity index (SI),[5],below 25
C=C(C)C(CC=C(C)C)Cc1c(O)cc(OC)c2c1O[C@H](c1ccc(O)cc1OC)CC2=O (stereo partly drawn) [(2S)-2’-methoxykurarinone],selectivity index (SI),"[5]; CC50 versus EC50, HCoV-229E in Huh-7 and HCoV-OC43 in RD cells",below 25
IDH3G-1 (sense GCAAGAGUAUCGCCAAUAATT; antisense UUAUUGGCGAUACUCUUGCTT; chemistry not given here),Relative mRNA content of the targeted gene after siRNA knockdown (Fig5D),[6],0.00
CC(=O)OC/C1=C\[C@H]2[C@@H](OC(=O)/C=C/c3ccccc3)[C@@H](C)C[C@]2(OC(C)=O)C(=O)/C(C)=C/[C@@H]2[C@H](CC1)C2(C)C [euphorbia factor L7a],selectivity index (SI),[5],below 25
